Patent publication US20120022070A1, “Heat Shock Protein 90 Inhibitors, Methods Of Preparing Same, And Methods For Their Use” (EMORY UNIVERSITY, priority 2008, published 2012)
Where two headings read alike, the source gives them in different places.

What was measured:
[1] = test system: Her2 protein in MCF-7 breast cancer cells; experiment: Cell-based Her2 degradation assay by Western Blot; details: Homo sapiens
Description: Addition of Hsp90 inhibitors to cancer cells induces the proteasomal degradation of a subset of proteins involved in signal transduction such as Raf1 kinase, Akt and certain transmembrane tyrosine kinases such as Her2. Thus, Her2 degradation in cells is a functional read-out of Hsp90 inhibition. Correlation between Hsp90 binding and Her2 degradation in cancer cells is indicative of a selective biological effect in these cells via Hsp90.
A Western blot-based assay was used to measure the cellular level of Her2 protein in MCF-7 breast cancer cell lysates collected after 24 hours of compound treatment. […] Then 2×10^5 cells were seeded in 24 well plates in 500 μl PRMI1640 medium and allowed to attach overnight. The compounds were dissolved in DMSO, added to the wells, and incubated for 24 hours. The cells were washed using ice-cold phosphate-buffered saline (PBS) and lysed in 1% NP40 lysis buffer (10 mM HEPES, pH 7.4, 150 mM NaCl, 1% Nonident P-40, 5 mM Pyrophosphate, 5 mM NaF, 2 mM Orthovanadate, 10 ug/ml Aprotinin, 10 ug/ml Leupeptin, 1 mM PMSF). After boiling with 6×SDS sample buffer, the cell lysates were separated by SDS-PAGE and transferred to nitrocellulose membrane. The membranes were blocked with 5% milk in tris-buffered saline buffer.

[2] = test system: tumor specific Hsp90 (NCI-N417 cell lysate); experiment: Hsp90 binding FP competition assay; design: species or system human
Description: There are several assays that have been developed to identify novel Hsp90 inhibitors based on the interaction of small molecules with recombinant Hsp90 protein, either yeast or human. To measure a therapeutically significant state of Hsp90, an FP assay that uses human cancer cell lysates instead of recombinant protein (Du, Moulick et al. J. Biomol. Screen, 2007, 12, 915-24) was utilized. It probes the interaction of small molecules with tumor-specific Hsp90 and may therefore lead to inhibitors that are not only selective for cancer cells but also specific for a particular malignancy.
The dose-response effect of the compounds was tested in Hsp90 binding FP competition assays to obtain the IC50 of the compounds. The Hsp90 FP competition assay was performed in 384-well black plate using the small-cell lung carcinoma (SCLC) cell line NCI-N417 as a source of tumor specific Hsp90 and the Cy3B-labeled geldanamycin (GM-cy3B) as the FP ligand. The compound was dissolved in DMSO and added at several concentrations to the reaction buffer containing both GM-cy3B (5 nM) and NCI-N417 cell lysate (1 μg/well) in a final volume of 50 μL. Free GM-cy3B (5 nM) and bound GM-cy3B with NCI-N417 cell lysate (5 nM GM-cy3B and 1 μg/well of NCI-N417 cell lysate) were included as controls in each plate. After incubating at room temperature for 2 to 16 hours, the polarization values were measured and expressed as millipolarization (mP) units using Analyst HT plate reader (Molecular Devices). The competitive efficiency of the compounds were expressed as a percentage of control and calculated according to the following equation:
% of control=((mPc−mPf)/(mPb−mPf))×100
where mPc is the recorded mP from compound wells, mPf is the average recorded mP from GM-cy3B-only wells, and mPb is the average recorded mP from wells containing both GM-cy3B and NCI-N417 lysate. IC50 values were determined using a nonlinear regression analysis as implemented in Prism 4.0 (Graphpad Software).

[3] = test system: Her2 protein in SKBr3 breast cancer cells; experiment: Cell-based Her2 degradation assay by Cytoblot; details: Homo sapiens, SK-BR-3, Table 2, values with asterisk, 24 hours
Description: Cellular Her2 level after compound treatment was also monitored by microtiter-based Her2 degradation assay, Cytoblot assay (Huezo, Vilenchik et al. Chem. Biol., 2003, 10, 629-634). This is a cell-based assay that enables the quantitative analysis of intracellular levels of Her2 protein.
The human breast cancer cell lines SKBr3 were maintained in RPMI1640 medium supplemented with 10% FBS. 3000 cells in 100 μl of growth medium were plated per well in black, clear-bottom microtiter plates (Corning) and allowed to attach for at least 24 hours at 37° C. and 5% CO2. Compounds at different doses or vehicle (DMSO) were carefully added to the wells and incubated for 24 hours. The cells were washed twice with ice-cold Tris buffer saline (TBS) containing 0.1% Tween 20 (TBST) and fixed with ice-cold methanol. After washing with TBST, the plate was incubated at RT for 1 hour with SuperBlock (Pierce 37535) and overnight at 4° C. with the anti-Her-2 antibody (Santa Cruz Biotechnology). The plate was then washed with TBST and incubated at RT for 2 hours with an anti-rabbit HRP-linked antibody (Sigma A0545). The chemiluminescent substrate solution (Pierce 38040) was added and the plate was read 5 minutes later in an Analyst HT plate reader (Molecular Devices). Luminescence readings resulting from compound-treated cells versus untreated cells (vehicle treated) were quantified and plotted against compound concentrations to give the IC50 values (defined as concentration of compound required to degrade 50% of total Her2).

[4] = test system: SKBR3 breast cancer cells; experiment: Cancer cell growth inhibition assay (CellTiter-Blue); format: cell-based; details: Homo sapiens, SK-BR-3, Table 2, 96 hours
Description: The effects of the compounds on cancer cell growth were determined using the CellTiter-Blue cell viability assay (Promega). CellTiter-Blue® Cell Viability is based on the ability of living cells to convert a redox dye (resazurin) into a fluorescent end product (resorufin).
The SKBR3 breast cancer cells were plated in 384-well microtiter plates (Costar) and allowed to attach overnight. After treatment with either compounds or vehicle (DMSO) for 96 hours, the cells were measured for their viability by CellTiter-Blue. Briefly, 10 μl of CelTiter-Blue were added to each well in 384-well plates and incubated at 37° C. for 4 hours. The fluorescence intensity (FI) was measured using the Analyst HT plate reader (Molecular Devices) with an excitation at 545 nm and emission at 595 nm. The IC50 was calculated as the compound concentration that inhibits cell viability by 50% compared with vehicle control wells. The IC50 values were determined as described above.

[5] = MCF7, Table 1, MCF-7 cells, 24 hours of compound treatment, read-out: Her2 degradation WB IC50
[6] = MCF7, 24 h, read-out: Her2 degradation WB IC50

| Compound | IC50 [1, 5] | IC50 ([2]; Table 1, GM-cy3B 5 nM) | IC50 [1, 6] | also measured |
| --- | --- | --- | --- | --- |
| O=C1C=C(Nc2cccc(Br)c2)c2ccccc2C1=O [Compound 27] | > 30 µM |  |  |  |
| COc1cccc(NC2=CC(=O)C(=O)c3ccccc32)c1 [Compound 42] | ~10 µM | 0.81 µM |  |  |
| CC(C)(C)OC(=O)N1CCN(C2=CC(=O)C(=O)c3ccccc32)CC1 [Compound 46] | 5 to 10 µM | 0.22 µM |  |  |
| CN(C1=CC(=O)C(=O)c2ccccc21)c1ccccc1 [Compound 18] |  | 0.39 µM | ~10 µM |  |
| O=C1C(=O)c2cccnc2C(NCc2ccccc2)=C1Cl [Compound 3] | ~2.5 µM |  |  |  |
| O=C1C=C(N2CCN(c3cccc4ccccc34)CC2)c2ccccc2C1=O [Compound 57] |  |  |  | IC50 ([2]; Table 2, GM-cy3B 5 nM): 0.89 µM; IC50 [3]: 3.9 µM; IC50 [4]: 0.22 µM |
| O=C1C=C(Nc2cc(Cl)ccc2Cl)c2ccccc2C1=O [Compound 33] | > 30 µM | 3.06 µM |  |  |
| O=C1C=C(Nc2ccc(O)cc2)c2ccccc2C1=O [Compound 43] |  | < 0.39 µM | ~10 µM |  |
| Cc1ccc(NC2=CC(=O)C(=O)c3ccccc32)c(C)c1 [Compound 13] |  | 1.85 µM | < 5 µM |  |
| Cc1ccc(NC2=CC(=O)C(=O)c3ccccc32)cc1 [Compound 15] |  | 0.96 µM | ~10 µM |  |
| NC1=CC(=O)C(=O)c2cccnc21 [Compound 4] | > 20 µM |  |  |  |
| Cc1cccc(C)c1NC1=CC(=O)C(=O)c2ccccc21 [Compound 26] |  | 3.9 µM | > 10 µM |  |
| N#CCCCCNC1=CC(=O)C(=O)c2cccnc21 [Compound 10] | ~10 µM |  |  |  |
| CCc1cccc(CC)c1NC1=CC(=O)C(=O)c2ccccc21 [Compound 34] |  | 3.55 µM | > 30 µM |  |
| Cc1ccnc(NC2=CC(=O)C(=O)c3ccccc32)c1 [Compound 12] | ~10 µM | < 0.39 µM |  |  |
| NC(=O)C(=O)CC(=O)c1ccccc1NC1=CC(=O)C(=O)c2ccccc21 [Compound 39] | > 30 µM | 4.2 µM |  |  |
| O=C1C=C(N2CCOCC2)c2ccccc2C1=O [Compound 23] |  | 0.63 µM | ~10 µM |  |
| CCN(CC)C1=C(Cl)C(=O)C(=O)c2cccnc21 [Compound 6] | > 20 µM |  |  |  |
| O=C1C=C(Nc2ccc(Br)cc2)c2ccccc2C1=O [Compound 36] |  | 1.4 µM | ~30 µM |  |
| C=CCN(CC=C)C1=CC(=O)C(=O)c2ccccc21 [Compound 24] | ~10 µM | 2.19 µM |  |  |
| O=C1C=C(Nc2ccc(Cl)cc2Cl)c2ccccc2C1=O [Compound 37] |  | 4.7 µM | ~30 µM |  |
| CCCCCCN(CCCCCC)C1=CC(=O)C(=O)c2ccccc21 [Compound 38] | ~30 µM | 2.6 µM |  |  |
| CC(C)c1cccc(C(C)C)c1NC1=CC(=O)C(=O)c2ccccc21 [Compound 44] | > 30 µM | 1.73 µM |  |  |
| Cc1ccc(C)c(NC2=CC(=O)C(=O)c3ccccc32)c1 [Compound 25] |  | 1.59 µM | > 30 µM |  |

| Compound | IC50 [1, 5] | IC50 ([2]; Table 1, GM-cy3B 5 nM) | IC50 [1, 6] | also measured |
| --- | --- | --- | --- | --- |
| O=C1C=C(Nc2ncccn2)c2ccccc2C1=O [Compound 14] | 1 to 10 µM | 0.45 µM |  |  |
| Cc1cc(C)nc(NC2=CC(=O)C(=O)c3ccccc32)c1 [Compound 67] |  |  |  | IC50 ([2]; Table 2, GM-cy3B 5 nM): 0.64 µM; IC50 [3]: 11.4 µM; IC50 [4]: 0.21 µM |
| O=C1C=C(Nc2ccccc2)c2ccccc2C1=O [Compound 32] |  | 7.4 µM | < 30 µM |  |
| CN(C)C1=C(Cl)C(=O)C(=O)c2cccnc21 [Compound 5] | > 20 µM |  |  |  |
| COc1ccc(NC2=CC(=O)C(=O)c3ccccc32)c([N+](=O)[O-])c1 [Compound 52] | > 10 µM | 0.23 µM |  |  |
| CCOc1ccc(NC2=CC(=O)C(=O)c3ccccc32)cc1 [Compound 21] | ~10 µM | 1 µM |  |  |
| O=C1C=C(Nc2ccccc2)c2ncccc2C1=O [Compound 1] | ~2.5 µM |  |  |  |
| O=C1C(=O)c2cccnc2C(NC2CC3CCC2C3)=C1Cl (stereo not shown) [Compound 2] | ~2.5 µM |  |  |  |
| O=C1C=C(Nc2cccc(O)c2)c2ccccc2C1=O [Compound 20] | ~10 µM | 0.6 µM |  |  |
| O=C1C=C(Nc2ccccc2C(=O)CC(=O)C(=O)Nc2ccc(Cl)c(Cl)c2)c2ccccc2C1=O [Compound 40] | > 30 µM | 10.5 µM |  |  |
| Cc1cccc(NC2=CC(=O)C(=O)c3ccccc32)c1 [Compound 41] |  | 1.06 µM | ≥ 10 µM |  |
| Cc1cc(Br)ccc1NC1=CC(=O)C(=O)c2ccccc21 [Compound 35] | > 30 µM | 3 µM |  |  |
| O=C1C=C(NCCc2ccccc2)c2ccccc2C1=O [Compound 17] | ~10 µM | 4 µM |  |  |
| O=C1C=C(Nc2cccc(Cl)c2)c2ccccc2C1=O [Compound 28] |  |  | > 30 µM |  |
| O=C1C=C(Nc2cccc(C(=O)O)c2)c2ccccc2C1=O [Compound 30] | > 30 µM | 1.33 µM |  |  |
| CCN(CC)C1=CC(=O)C(=O)c2ccccc21 [Compound 48] |  | 0.69 µM | 5 to 10 µM |  |
| CN1CCN(C2=CC(=O)C(=O)c3ccccc32)CC1 [Compound 47] | 5 to 10 µM | 0.39 µM |  |  |
| NC1=CC(=O)C(=O)c2ccccc21 [Compound 31] | 10 to 30 µM | 2.18 µM |  |  |
| Cc1ccc(NC2=CC(=O)C(=O)c3ccccc32)c(C(=O)O)c1 [Compound 68] |  |  |  | IC50 ([1]; MCF7, Table 2, values without asterisk, MCF-7 cells, 24 hours, read-out: IC50, Her2 degradation WB): > 30 µM; IC50 [4]: > 20 µM |
| O=C1C=C(NCCCCC2CCCCC2)c2ccccc2C1=O [Compound 22] | > 30 µM |  |  | FP Assay IC50 ([2]; Table 1, GM-cy3B 5 nM): inactive |
| O=C1C=C(Nc2ccc(Cl)cc2)c2ccccc2C1=O [Compound 19] |  | 0.68 µM | < 10 µM |  |
| Cc1ccc(NC2=CC(=O)C(=O)c3ccccc32)cc1C [Compound 29] | < 10 µM | 1.07 µM |  |  |
| CC(N)CCCNC1=CC(=O)C(=O)c2cccnc21 (stereo not shown) [Compound 11] | 2.5 to 5 µM |  |  |  |
| O=C1C=C(Nc2cccnc2)c2ccccc2C1=O [Compound 16] | ~10 µM | 0.67 µM |  |  |
